Reference: PMC10112521, “High-throughput AR dimerization assay identifies androgen disrupting chemicals and metabolites” (Frontiers in Toxicology, 2023)
Values joined by “and” are separate entries in the source; they are usually repeats but may differ in a detail not shown here. Equal values may be shown once. Read-outs that look alike come from different tables or passages of the source.

Key:
AR2 cells (HepG2-AR2) [1] = test: Alamar Blue (resazurin) post hoc cell viability / cytotoxicity assay in AR2 cells
Description: (§1) For antagonist mode and cytotoxicity data, well-level normalized response (resp) was calculated as: resp=100 * RLU−bval/pval−bval where pval is the median RLU value of the MEC positive control wells (minimum four wells).

human AR [2] = target: T1, human AR (Homo sapiens, UniProt P10275); test: AR2 assay, antagonist mode: disruption of R1881 (10 nM)-induced AR homodimerization in HepG2-AR2 cells; format: cell-based; conditions: spid AR_antagonist, sheet antagonist_fits; for hill_gw (Hill model slope) / hill_tp (Hill model top): 0 where win_model is Constant
T1 sequence (P10275 1-920) 1: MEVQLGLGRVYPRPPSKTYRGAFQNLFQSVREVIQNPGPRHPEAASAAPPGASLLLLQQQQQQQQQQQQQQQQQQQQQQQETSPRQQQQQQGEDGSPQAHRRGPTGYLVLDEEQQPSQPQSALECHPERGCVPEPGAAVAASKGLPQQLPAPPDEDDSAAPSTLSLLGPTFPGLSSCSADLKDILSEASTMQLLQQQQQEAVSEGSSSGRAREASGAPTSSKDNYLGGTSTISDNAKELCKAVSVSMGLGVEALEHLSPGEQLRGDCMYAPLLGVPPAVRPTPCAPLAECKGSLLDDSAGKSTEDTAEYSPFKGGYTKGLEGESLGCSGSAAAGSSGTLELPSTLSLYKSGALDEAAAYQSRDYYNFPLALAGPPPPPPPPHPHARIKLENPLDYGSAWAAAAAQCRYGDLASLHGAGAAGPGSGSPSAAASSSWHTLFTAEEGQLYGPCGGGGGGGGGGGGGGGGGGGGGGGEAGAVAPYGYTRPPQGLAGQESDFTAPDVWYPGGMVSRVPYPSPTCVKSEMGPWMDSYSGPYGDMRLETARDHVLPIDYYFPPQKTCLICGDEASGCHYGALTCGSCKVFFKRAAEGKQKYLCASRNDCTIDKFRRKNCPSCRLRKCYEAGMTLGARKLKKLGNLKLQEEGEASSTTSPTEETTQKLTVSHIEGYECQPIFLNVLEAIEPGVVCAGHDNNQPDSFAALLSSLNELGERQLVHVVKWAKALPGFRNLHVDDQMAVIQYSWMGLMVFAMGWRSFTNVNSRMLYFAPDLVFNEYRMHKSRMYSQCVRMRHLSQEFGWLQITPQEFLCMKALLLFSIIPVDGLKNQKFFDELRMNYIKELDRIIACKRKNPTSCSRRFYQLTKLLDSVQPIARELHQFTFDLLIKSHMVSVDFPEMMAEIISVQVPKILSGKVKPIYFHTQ
T1 sequence (P10275 1-920) 2: T1 sequence (P10275 1-920) 1

human AR [3] = target: T1, human AR; test: cell-based; set-up: species or system AR2 cells (HepG2-AR2); NanoLuc complementation AR homodimerization, antagonist mode, loss of agonist-induced luminescence, AC50 by Hill fit
human AR [4] = target: T1, human AR; test: cell-based; set-up: species or system AR2 cells (HepG2-AR2); NanoLuc complementation AR homodimerization, agonist mode, luminescence gain, AC50 by Hill fit
human AR [5] = target: T1, human AR; test: AR2 assay, agonist mode: ligand-dependent AR homodimerization (NanoBiT luciferase complementation) in stable HepG2-AR2 cells; format: cell-based; conditions: sheet agonist_fits; for hill_gw: Hill model gain slope (Hill coefficient); for hill_gw / hill_tp: 0 given where win_model is Constant; for hill_tp: Hill model top (efficacy); for max_med: maximum median response; for win_model: winning concentration-response model (Constant, Hill, Gain-Loss);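 on hill tp: Log2 fold change of luminescence over DMSO vehicle wells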;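 on max med: Log2 fold change of luminescence over DMSO vehicle wells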
AR = system: AR; set-up: method as in Kleinstreuer et al., 2017; conditions: cited from earlier work
[6] = system: full-length human AR and the receptor interacting domain (RID) of SRC1; set-up: method as in U.S. EPA, 2002b; conditions: cited from earlier work
AR2 cells (HepG2-AR2) [7] = system: AR2 cells (HepG2-AR2)
Description: as §1

[8] = system: human AR (LBD and AF2 domains) and the RID of human SRC2; set-up: method as in U.S. EPA, 2002b; conditions: activity call, agonist mode, 2 h; invitroDBv3.4 ref U.S. EPA, 2002b; cited from earlier work
[9] = spid Viability, sheet antagonist_fits
[10] = spid Viability, sheet antagonist_fits, 0 where win_model is Constant
[11] = hill_ga, spid=Bgal, antagonist mode, 10 nM agonist stimulus, 18 h, no CYP expressed
[12] = hill_ga, spid=No_RNA, antagonist mode, 10 nM agonist stimulus, 18 h, no CYP expressed
[13] = hill_ga, spid=Bgal, agonist mode, 18 h, no CYP expressed
[14] = hill_ga, spid=No_RNA, agonist mode, 18 h, no CYP expressed

Structure (SMILES)	max_med (maximum median response) (AR2 cells (HepG2-AR2) [1]; [9])	hill_tp (Hill model top) (AR2 cells (HepG2-AR2) [1]; [10])	max_med (maximum median response) (human AR [2])	win_model (winning concentration-response model) (human AR [2])	hill_gw (Hill model slope) (human AR [2])	hill_tp (Hill model top) (human AR [2])	AC50 (human AR [3]; [11]) [µM]	AC50 (human AR [3]; [12]) [µM]	AC50 (human AR [4]; [13]) [µM]	AC50 (human AR [4]; [14]) [µM]	hill_gw (human AR [5])	hill_tp (human AR [5])	max_med (human AR [5])	win_model (human AR [5])	OT 8 hr [6]	OT 16 hr [6]	UPitt agonist [8]	also measured
O=C(c1ccc(O)cc1O)c1ccc(O)cc1O [2,2',4,4'-Tetrahydroxybenzophenone]	18.7262	17.7235	92.9832	Hill	1.5932	93.4271	9.95	10.6	9.83	9.94	3.418	2.275	2.26	Gain-Loss	–	–	–	–
C[C@]12CCC(=O)C[C@@H]1CC[C@@H]1[C@@H]2CC[C@]2(C)[C@@H](O)CC[C@@H]12 [5alpha-Dihydrotestosterone]	–	–	–	–	–	–	–	–	–	–	–	–	–	–	1	1	0	Agonist reference (AR): Moderate; hill_tp (Hill model top) (AR2 cells (HepG2-AR2) [1]): 25.0955; max_med (maximum median response) (AR2 cells (HepG2-AR2) [1]): 25.6282; hill_ga (Hill model log AC50) (AR2 cells (HepG2-AR2) [7]): 1.263
C[C@]12CC[C@@H]3c4ccc(O)cc4CC[C@H]3[C@@H]1CC[C@H]2O [17alpha-Estradiol]	9.057	0	–	–	–	–	–	–	–	–	–	–	–	–	1	1	1	Agonist reference (AR; AR agonist reference class ref Kleinstreuer et al., 2017): Inactive
CCCCOC(=O)c1ccc(O)cc1 [Butylparaben]	19.2784	11.4715	51.2671	Hill	8	52.9514	73.1	67.8	10.4	15.3	8	0.09975	0.1079	Gain-Loss	–	–	–	–
CCOP(=S)(OCC)Oc1nc(Cl)c(Cl)cc1Cl [Chlorpyrifos]	11.582	0	43.366	Hill	1.601	66.6083	–	–	–	–	–	–	-0.04623	–	–	–	–	AC50 (human AR [3]; hill_ga): 32.9 µM and 58.7 µM; AC50 (human AR [4]; hill_ga): > 99.9 µM
C[C@]12CC[C@@H]3c4ccc(O)cc4CC[C@H]3[C@@H]1CCC2=O [Estrone]	20.7469	20.0823	84.5958	Hill	1.278	83.5344	–	–	–	–	0.4978	4.258	3.757	Hill	–	–	–	AC50 (human AR [3]; spid=Bgal, antagonist mode, 10 nM agonist stimulus, 18 h, no CYP expressed, read-out: hill_ga (converted)): 0.556 µM; AC50 (human AR [3]; spid=No_RNA, antagonist mode, 10 nM agonist stimulus, 18 h, no CYP expressed, read-out: hill_ga (converted)): 0.707 µM; AC50 (human AR [4]; spid=Bgal, agonist mode, 18 h, no CYP expressed, read-out: hill_ga (converted)): 4.32 µM; AC50 (human AR [4]; spid=No_RNA, agonist mode, 18 h, no CYP expressed, read-out: hill_ga (converted)): 2.63 µM
